Data published in patent US8283358B2, “N-sulfonamido polycyclic pyrazolyl compounds” (Elan Pharmaceuticals, Inc., priority 2008, dated 2012).
Where two headings read alike, the source gives them in different places.

Key:
[1] = tested on: gamma secretase in CHO cells expressing APPSwe, NotchΔE and a Notch responsive luciferase reporter gene (SNC-204B8); experiment: SNC dual cell assay for simultaneous assay of A-beta reduction and Notch signaling (Example D); conditions: ratio of Notch IC50/Aβ EC50 determined as described in Example D (SNC dual cell assay)
Text: In order to facilitate testing the potency of gamma-secretase inhibitors on two substrates (APP and Notch) simultaneously, a dual-assay using a CHO cell line stably expressing APPSwe, a Notch substrate lacking the ecto-domain, and a Notch responsive Luciferase reporter gene was developed. CHOSwe cells stably over-express the Swedish FAD isoform of APP, and secrete large amounts of Aβ peptide into the conditioned media from endogenous β- and γ-secretase enzyme activity. A Notch intracellular domain (NICD) responsive reporter gene, and the constitutive gamma-secretase Notch substrate, NotchΔE, were stably introduced into CHOSwe cells in a two step process. CHOSwe cells were first stably transfected to express a NICD responsive luciferase reporter gene construct (pGL2-CBF-Luc). […] Stable cell lines expressing rat NotchΔE were then identified in the second step by including a gamma-secretase inhibitor in the selection process (to suppress Notch/NICD toxicity) following transfection of the rat Notch-ΔE construct. […] This vector drives expression of a truncated rat Notch construct corresponding to the c-terminal product following ecto-domain shedding of full length rat Notch protein. The c-terminal product is a constitutive substrate for gamma-secretase cleavage, resulting in release of the cytoplasmic Notch intracellular domain (NICD) product, which translocates to the nucleus and relieves CBF repressed genes. Subsequently, pIRES-ZEDN transfected cells were re-plated at low density in the presence of test compound, and selected with three antibiotics (G418 (0.5 mg/ml)/Hygro (1 mg/ml)/Puro (2.5 mg/ml)). The antibiotic-resistant colonies (named SNC clones for the dual-assay components: APPSwe/NotchΔE/CBF) were isolated and expanded for characterization of Aβ secretion, and NICD responsive reporter gene activity (i.e. luciferase signal in the presence versus absence of test compound). […] A typical dual-assay experiment was performed as follows: Day 1, the SNC cells were plated in 96-well assay plates in inhibitor-free media. Day 2, the cells were fed with fresh media (inhibitor free) and treated with test compounds over a concentration range 0 nM to 40,000 nM (in 10× incremental dilutions) one hour after the media change. The cells were treated with compounds overnight at 37° C. […] For the Notch signaling assay, the cells were lysed and luciferase activity from the lysate was measured using the Promega kit (see below). Day 4, Aβ-ELISA part II was conducted using 3D6-biotin/AP-streptavidin antibodies.

[2] = biological target: T1, gamma-secretase (partially purified extract of IMR-32 cell membranes; substrate MBP-C125 Swe fusion protein, cleavage at the Aβ40 site) (Homo sapiens, UniProt P49768); experiment: Gamma-secretase APP enzyme assay (Example A); assay type: biochemical; conditions: class symbols, assay described in Example A
T1 construct: a partially purified extract of IMR-32 cell membranes as the gamma-secretase enzyme preparation; endogenous in cells; host or cells: IMR-32 cell membranes, partially purified extract
Summary of the method: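 IMR-32 membrane extract, solubilised in BigCHAPS with brain lipid (0.53 mg/ml) in Hepes/NaCl, preincubated 30 min at 37° C with inhibitor; MBP-C125 Swe substrate then added, 2 h at 37° C, SDS-quenched. Aβ40 neo-epitope product measured by sandwich ELISA against six-point standard curve.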

SMILES	Selectivity Ratio (Notch IC50/Aβ ED50) [1]	IC50 ([2]; read-out: γAPP IC50) [nM]	further results
O=C1c2[nH]ncc2C2c3cccc(F)c3C1N2S(=O)(=O)c1ccc(C(F)(F)F)nc1 (single isomer, unassigned; (-)) [(−)-8-fluoro-11-{[6-(trifluoromethyl)pyridin-3-yl]sulfonyl}-4,9-dihydro-4,9-epiminobenzo[4,5]cyclohepta[1,2-c]pyrazol-10(1H)-one]	(++++) ((++++) means a ratio of Notch IC50/Aβ EC50 (determined as described in Example D) of >200)	–	–
O=C1c2[nH]ncc2C2c3c(F)cccc3C1N2S(=O)(=O)c1ccc(C(F)(F)F)nc1 (single isomer, unassigned; (-)) [(−)-5-fluoro-11-{[6-(trifluoromethyl)pyridin-3-yl]sulfonyl}-4,9-dihydro-4,9-epiminobenzo[4,5]cyclohepta[1,2-c]pyrazol-10(1H)-one]	(++++) ((++++) means a ratio of Notch IC50/Aβ EC50 (determined as described in Example D) of >200)	–	–
O=S(=O)(c1ccc(C(F)(F)F)cc1)N1C2c3cn[nH]c3C(F)C1c1cccc(F)c12 (single isomer, unassigned; (+)) [(+)-5,10-difluoro-11-{[4-(trifluoromethyl)phenyl]sulfonyl}-1,4,9,10-tetrahydro-4,9-epiminobenzo[4,5]cyclohepta[1,2-c]pyrazole]	(++) ((++) means a ratio from about 100 to about 149)	–	–
O=S(=O)(c1ccc(C(F)(F)F)cc1)N1C2Cc3[nH]ncc3C1CC(c1cccc(Br)c1)C2 (racemic) [(±)-6-(3-bromophenyl)-10-{[4-(trifluoromethyl)phenyl]sulfonyl}-4,5,6,7,8,9-hexahydro-1H-4,8-epiminocycloocta[c]pyrazole]	(+) ((+) means a ratio from about 50 to about 99)	–	–
O=S(=O)(c1ccc(C(F)(F)F)nc1)N1C2Cc3[nH]ncc3C1CC(c1ccc(F)cc1)C2 (racemic) [(±)-exo-6-(4-fluorophenyl)-10-{[6-(trifluoromethyl)pyridin-3] [(±)-exo-6-(4-fluorophenyl)-10-{[6-(trifluoromethyl)pyridin-3-yl]sulfonyl}-4,5,6,7,8,9-hexahydro-1H-4,8-epiminocycloocta[c]pyrazole]	(+++) ((+++) means a ratio from about 150 to about 199)	–	–
O=S(=O)(c1ccc(C(F)(F)F)nc1)N1C2Cc3[nH]ncc3C1c1cc(Br)ccc12 (single isomer, unassigned; (-)) [(−)-6-bromo-11-{[6-(trifluoromethyl)pyridin-3-yl]sulfonyl}-1,4,9,10-tetrahydro-4,9-epiminobenzo[4,5]cyclohepta[1,2-c]pyrazole]	(+) ((+) means a ratio from about 50 to about 99)	–	–
O=S(=O)(c1ccc(C(F)(F)F)nc1)N1C2Cc3[nH]ncc3C1CC(c1nc(C(F)(F)F)cs1)C2 (racemic) [(±)-10-{[6-(trifluoromethyl)pyridin-3-yl]sulfonyl}-6-[4-(trifluoromethyl)-1,3-thiazol-2-yl]-4,5,6,7,8,9-hexahydro-1H-4,8-epiminocycloocta[c]pyrazole]	(+++) ((+++) means a ratio from about 150 to about 199)	–	–
O=S(=O)(c1ccc(C(F)(F)F)cc1)N1C2c3ccccc3C1C(O)c1[nH]ncc12 (single isomer, unassigned; (+)) [(+)-endo-11-{[4-(trifloromethyl)phenyl]sulfonyl}-1,4,9,10-tetrahydro-4,9-epiminobenzo[4,5]cyclohepta[1,2-c]pyrazol-10-ol]	(+++) ((+++) means a ratio from about 150 to about 199)	–	–
O=S(=O)(c1ccc(C(F)(F)F)cc1)N1C2Cc3[nH]ncc3C1CC(c1cccc(-n3cccn3)c1)C2 (racemic) [(±)-6-[3-(1H-pyrazol-1-yl)phenyl]-10-{[4-(trifluoromethyl)phenyl]sulfonyl}-4,5,6,7,8,9-hexahydro-1H-4,8-epiminocycloocta[c]pyrazole]	(+) ((+) means a ratio from about 50 to about 99)	–	–
O=S(=O)(c1ccc(C(F)(F)F)nc1)N1C2Cc3[nH]ncc3C1CC(c1ccc(F)cc1)C2 (racemic) [(±)-endo-6-(4-fluorophenyl)-10-{[6-(trifluoromethyl)pyridin-] [(±)-endo-6-(4-fluorophenyl)-10-{[6-(trifluoromethyl)pyridin-3-yl]sulfonyl}-4,5,6,7,8,9-hexahydro-1H-4,8-epiminocycloocta[c]pyrazole]	(++) ((++) means a ratio from about 100 to about 149)	–	–
O=S(=O)(c1ccc(C(F)(F)F)cc1)N1C2Cc3[nH]ncc3C1CC(c1csnn1)C2 (racemic) [(±)-6-(1,2,3-thiadiazol-4-yl)-10-{[4-(trifluoromethyl)phenyl]sulfonyl}-4,5,6,7,8,9-hexahydro-1H-4,8-epiminocycloocta[c]pyrazole]	(^++)	–	–
O=S(=O)(c1ccc(C(F)(F)F)cc1)N1C2Cc3[nH]ncc3C1c1cccc(-c3cccc(C(F)(F)F)c3)c1C2 (racemic) [(±)-7-[3-(trifluoromethyl)phenyl]-12-{[4-(trifluoromethyl)phenyl]sulfonyl}-4,5,6,11-tetrahydro-3H-5,11-epiminobenzo[4,5]cycloocta[1,2-c]pyrazole]	(++) ((++) means a ratio from about 100 to about 149)	–	–
O=S(=O)(c1ccc(C(F)(F)F)nc1)N1C2Cc3[nH]ncc3C1CC(c1ccc3c(c1)OCO3)C2 (racemic) [(±)-6-(1,3-benzodioxol-5-yl)-10-{[6-(trifluoromethyl)pyridin-3-yl]sulfonyl}-4,5,6,7,8,9-hexahydro-1H-4,8-epiminocycloocta[c]pyrazole]	(+) ((+) means a ratio from about 50 to about 99)	–	–
Cc1cc(C2CC3Cc4[nH]ncc4C(C2)N3S(=O)(=O)c2ccc(Cl)cc2)on1 (racemic) [(±)-10-[(4-chlorophenyl)sulfonyl]-6-(3-methylisoxazol-5-yl)-4,5,6,7,8,9-hexahydro-1H-4,8-epiminocycloocta[c]pyrazole]	(++++) ((++++) means a ratio of Notch IC50/Aβ EC50 (determined as described in Example D) of >200)	–	–
Cc1noc(C2CC3Cc4[nH]ncc4C(C2)N3S(=O)(=O)c2ccc(Cl)cc2)n1 (racemic) [(±)-10-[(4-chlorophenyl)sulfonyl]-6-(3-methyl-1,2,4-oxadiazol-5-yl)-4,5,6,7,8,9-hexahydro-1H-4,8-epiminocycloocta[c]pyrazole]	(++++) ((++++) means a ratio of Notch IC50/Aβ EC50 (determined as described in Example D) of >200)	–	–
O=S(=O)(c1ccc(C(F)(F)F)cc1)N1C2C=C(c3ccc(F)cc3)C1c1cn[nH]c1C2 (racemic) [compound 59]	–	100 to 499	–

SMILES	Selectivity Ratio (Notch IC50/Aβ ED50) [1]	IC50 ([2]; read-out: γAPP IC50) [nM]	further results
O=S(=O)(c1ccc(C(F)(F)F)nc1)N1C2c3c[nH]nc3[C@@H](O)C1c1c(F)cccc12 (stereo partly shown) [compound 240]	–	100 to 499	–
O=S(=O)(c1ccc(C(F)(F)F)cc1)N1C2c3c[nH]nc3C(F)(F)C1c1c(F)cccc12 (stereo not shown) [compound 121]	–	< 100	–
CC(=O)Nc1ccc(C2CC3Cc4[nH]ncc4C(C2)N3S(=O)(=O)c2ccc(C(F)(F)F)cc2)cc1 (racemic) [compound 152]	–	< 100	–
O=S(=O)(c1ccc(C(F)(F)F)nc1)N1C2Cc3[nH]ncc3C1c1cc(F)ccc12 (single isomer, unassigned) [compound 179]	–	500 to 999	–
O=C1CCN1c1ccc(C2CC3Cc4[nH]ncc4C(C2)N3S(=O)(=O)c2ccc(C(F)(F)F)cc2)cc1 (racemic) [compound 153]	–	< 100	–
O=C1COCCN1c1ccc(C2CC3Cc4[nH]ncc4C(C2)N3S(=O)(=O)c2ccc(C(F)(F)F)cc2)cc1 (racemic) [compound 143]	–	500 to 999	–
O=S(=O)(c1ccc(C(F)(F)F)cc1)N1C2Cc3cccc(F)c3C1Cc1n[nH]cc12 (stereo not shown) [compound 191]	–	< 100	–
O=S(=O)(c1ccc(C(F)(F)F)cc1)N1C2Cc3[nH]ncc3C1c1cccnc12 (stereo not shown) [compound 100]	–	< 100	–
O=C1c2[nH]ncc2C2c3c(F)cccc3C1N2S(=O)(=O)c1ccc(Cl)cc1 (stereo not shown) [compound 242]	–	< 100	–
O=S(=O)(c1ccc(C(F)(F)F)nc1)N1C2Cc3[nH]ncc3C1c1cc(O)ccc12 (racemic) [compound 225]	–	< 100	–
O=S(=O)(c1ccc(C(F)(F)F)nc1)N1C2Cc3[nH]ncc3C1c1ncc(F)cc12 (racemic) [(±)-7-fluoro-11-{[6-(trifluoromethyl)pyridin-3-yl]sulfonyl}-1,4,9,10-tetrahydro-4,9-epiminopyrazolo[3′,4′: 5,6]cyclohepta[1,2-b]pyridine]	(+) ((+) means a ratio from about 50 to about 99)	–	–
O=S(=O)(c1ccc(C(F)(F)F)cc1)N1C2Cc3n[nH]cc3C1c1c(F)cccc12 (single isomer, unassigned) [compound 115]	–	–	IC50 ([2]; γAPP IC50 (nM)): < 100 nM
COC(=O)c1ccc2c(c1)C1c3cn[nH]c3CC2N1S(=O)(=O)c1ccc(C(F)(F)F)nc1 (stereo not shown) [compound 205]	–	100 to 499	–
CC(=O)c1ccc(C2CC3Cc4[nH]ncc4C(C2)N3S(=O)(=O)c2ccc(C(F)(F)F)cc2)cc1 (racemic) [compound 154]	–	100 to 499	–
Cc1nc(C2CC3Cc4[nH]ncc4C(C2)N3S(=O)(=O)c2ccc(C(F)(F)F)cc2)n(C)n1 (racemic) [compound 80]	–	500 to 999	–
